For orientation: EC50 means the concentration at which the effect is half-maximal.

The test deals with recombinant DYRK1A kinase (Homo sapiens (Human), UniProt Q13627). As to the kind of experiment: DYRK1A kinase assay (Ser/Thr 18 peptide Z-lyte FRET assay). Particulars: DYRK1A kinase activity; 15 μM ATP, 1 h room temperature; method text calls the value IC50. It is filed as biochemical. On the procedure:
Representative compounds were screened using the assay procedure for DYRK1A kinase activity as described below.
Each compound was dissolved in DMSO as a 10 mM stock and used to prepare compound source plates. Serial dilution (1:3, 11-point dose-response curves from 10 μM to 0.00016 μM) and compound transfer was performed using the ECHO 550 (Labcyte, Sunnyvale, CA) into 1536-well black-walled round bottom plates (Corning).
The DYRK1A kinase assay was run using the Ser/Thr 18 peptide Z-lyte assay kit according to manufacturer's instructions (Life Technologies—a Division of Thermo-Fisher). This is a non-radioactive assay using fluorescence resonance energy transfer (FRET) between coumarin and fluorescein to detect kinase activity which is represented as a ratio of coumarin emission/fluorescein emission.
Briefly, recombinant DYRK1A kinase, ATP and Ser/Thr peptide 18 were prepared in 1× Kinase buffer to final concentrations of 0.25 μg/mL, 15 μM, and 4 μM respectively. The mixture was allowed to incubate with the representative compounds for one hour at room temperature. All reactions were performed in duplicate. Unphosphorylated (“0% Control”) and phosphorylated (“100% control”) forms of Ser/Thr 18 served as control reactions. Additionally, an 11-point dose-response curve of Staurosporine (1 uM top) was run to serve as a positive compound control.
After incubation, Development Reagent A was diluted in Development Buffer then added to the reaction and allowed to further incubate for one hour at room temperature. The plate was read at Ex 400 Em […] to detect the coumarin signal and Ex 400 Em 520 to measure the signal (EnVision Multilabel Plate Reader, PerkinElmer).
The Emission ratio (Em) was calculated as a ratio of the coumarin (C) emission signal (at 445 nm)/Fluorescein (F) emission signal (at 520 nm). The percent phosphorylation was then calculated using the following formula: [1−((Em ratio×F100%)−C100%)/((C0%−C100%)+(Em ratio×(F100%−F0%)))]. Dose-response curves were generated, and inhibitory concentration (IC50) values were calculated using non-linear regression curve fit in the Dotmatics' Studies Software (Bishops Stortford, UK).
Take “4-Methoxy-N-(cis-4-methoxycyclohexyl)-5-(1-methyl-1H-benzo[d][1,2,3]triazol-6-yl)-7H-pyrrolo[2,3-d]pyrimidin-2-amine [Compound 3114]”: the concentration giving a half-maximal response (EC50) came to 1.2 nM. The same measure for “5-(1-(2,2-Difluoroethyl)-1H-benzo[d][1,2,3]triazol-6-yl)-4-methoxy-N-(cis-4-(trifluoromethoxy)cyclohexyl)-7H-pyrrolo[2,3-d]pyrimidin-2-amine [Compound 2297]”: 458 nM; for “5-(1-(2,2-Difluoroethyl)-1H-benzo[d][1,2,3]triazol-6-yl)-N-(2-fluoro-2-methylpropyl)-4-methoxy-7H-pyrrolo[2,3-d]pyrimidin-2-amine [Compound 2292]”: 17.4 nM. Consider “5-(1-(2,2-Difluoroethyl)-1H-benzo[d][1,2,3]triazol-6-yl)-N-(cis-4-(difluoromethoxy)cyclohexyl)-4-methoxy-7H-pyrrolo[2,3-d]pyrimidin-2-amine [Compound 2296]”, for which the EC50 was found to be 103 nM. The same measure for “5-(2-Cyclopropyl-7H-pyrrolo[2,3-d]pyrimidin-5-yl)-N-methyl-N-(tetrahydro-2H-pyran-4-yl)pyrazolo[1,5-a]pyridine-3-carboxamide [Compound 1552]”: 194 nM. With “5-(3-Chloropyrazolo[1,5-a]pyrimidin-5-yl)-N-(2-fluoro-2-methylpropyl)-7H-pyrrolo[2,3-d]pyrimidin-2-amine [Compound 1680]”, the half-maximal effective concentration (EC50) is 26.1 nM.

Turning to “5-(Imidazo[1,2-a]pyrazin-6-yl)-7H-pyrrolo[2,3-d]pyrimidine [Compound 491]”, the EC50 came to 15.5 nM.

In the case of `COc1ccc(-c2c[nH]c3nc(NCC(C)(C)F)ncc23)cc1` [Compound 1, N-(2-Fluoro-2-methylpropyl)-5-(4-methoxyphenyl)-7H-pyrrolo[2,3-d]pyrimidin-2-amine], the EC50 was 236 nM. The value for `COc1ccc(-c2c[nH]c3nc(NC4CCN(S(C)(=O)=O)CC4)ncc23)c(OC)c1` [Compound 2, 5-(2,4-Dimethoxyphenyl)-N-(1-(methylsulfonyl)piperidin-4-yl)-7H-pyrrolo [2,3-d]pyrimidin-2-amine] was 43.8 nM. As to `Cn1cc(-c2c[nH]c3nc(NCC(C)(C)F)ncc23)ccc1=O` [Compound 3, 5-(2-((2-Fluoro-2-methylpropyl)amino)-7H-pyrrolo[2,3-d]pyrimidin-5-yl)-1-methylpyridin-2(1H)-one], the EC50 stood at 22.1 nM. Turning to `Cn1cc(-c2c[nH]c3nc(NC4CCC(F)(F)CC4)ncc23)ccc1=O` [Compound 4, 5-(2-((4,4-Difluorocyclohexyl)amino)-7H-pyrrolo[2,3-d]pyrimidin-5-yl)-1-methylpyridin-2(1H)-one], the EC50 is 411 nM. Take `CC(C)(F)CNc1ncc2c(-c3ccc(C(F)F)nc3)c[nH]c2n1` [Compound 5, 5-(6-(Difluoromethyl)pyridin-3-yl)-N-(2-fluoro-2-methylpropyl)-7H-pyrrolo [2,3-d]pyrimidin-2-amine]: the concentration for a half-maximal effect (EC50) was found to be 1400 nM. The same measure for `COc1ccc(-c2c[nH]c3nc(NCC(C)(C)F)ncc23)cn1` [Compound 6, N-(2-Fluoro-2-methylpropyl)-5-(6-methoxypyridin-3-yl)-7H-pyrrolo[2,3-d]pyrimidin-2-amine]: 33.9 nM; for `CC(C)(F)CNc1ncc2c(-c3ccc(OC(F)F)nc3)c[nH]c2n1` [Compound 7]: over 10000 nM.

Take `COc1ccc(-c2c[nH]c3ncnc(N[C@H]4CC[C@H](N5CCOCC5)CC4)c23)cn1` [Compound 8, 5-(6-Methoxypyridin-3-yl)-N-(trans-4-morpholinocyclohexyl)-7H-pyrrolo [2,3-d]pyrimidin-4-amine]: the EC50 is 768 nM. For the molecule `COc1ncc(-c2c[nH]c3nc(NCC(C)(C)F)ncc23)cn1` [Compound 9, N-(2-Fluoro-2-methylpropyl)-5-(2-methoxypyrimidin-5-yl)-7H-pyrrolo[2,3-d]pyrimidin-2-amine], the EC50 turned out to be 778 nM.

In the case of `CN1CCN(c2ccc(CNc3ncc4c(-c5ccc6c(c5)CNC6=O)c[nH]c4n3)cn2)CC1` [Compound 10, 5-(2-(((6-(4-Methylpiperazin-1-yl)pyridin-3-yl)methyl)amino)-7H-pyrrolo [2,3-d]pyrimidin-5-yl)isoindolin-1-one], the EC50 was found to be 96.8 nM.

In the case of `Cc1nc2ccc(-c3c[nH]c4nc(NCC(C)(C)F)ncc34)nc2s1` [Compound 54, N-(2-Fluoro-2-methylpropyl)-5-(2-methylthiazolo[5,4-b]pyridin-5-yl)-7H-pyrrolo[2,3-d]pyrimidin-2-amine], the EC50 was found to be 671 nM. Consider `CN1CCN(c2ccc(Nc3ncc4c(-c5cc6cnccc6s5)c[nH]c4n3)cn2)CC1` [Compound 93, N-(6-(4-Methylpiperazin-1-yl)pyridin-3-yl)-5-(thieno[3,2-c]pyridin-2-yl)-7H-pyrrolo[2,3-d]pyrimidin-2-amine], for which the EC50 is 6.4 nM. The value for `c1cnc2sc(-c3c[nH]c4ncncc34)nc2c1` [Compound 98, 2-(7H-Pyrrolo[2,3-d]pyrimidin-5-yl)thiazolo[5,4-b]pyridine] was 22.1 nM; that for `CCNc1ncc2c(-c3ccc4nccn4c3)c[nH]c2n1` [Compound 107, N-Ethyl-5-(imidazo[1,2-a]pyridin-6-yl)-7H-pyrrolo[2,3-d]pyrimidin-2-amine] was 1.6 nM.

`FC(F)(F)CNc1ncc2c(-c3ccc4nccn4c3)c[nH]c2n1` [Compound 114, 5-(Imidazo[1,2-a]pyridin-6-yl)-N-(2,2,2-trifluoroethyl)-7H-pyrrolo[2,3-d]pyrimidin-2-amine]: the 50% effective concentration (EC50) was 4.6 nM. The value for `Fc1cnc2ccc(-c3c[nH]c4nc(C5CC5)ncc34)cn12` [Compound 145, 2-Cyclopropyl-5-(3-fluoroimidazo[1,2-a]pyridin-6-yl)-7H-pyrrolo[2,3-d]pyrimidine] was 94.3 nM. The same measure for `C[C@@H](Nc1ncc2c(-c3ccc4ncc(F)n4c3)c[nH]c2n1)C(F)(F)F` [Compound 158, (R)-5-(3-Fluoroimidazo[1,2-a]pyridin-6-yl)-N-(1,1,1-trifluoropropan-2-yl)-7H-pyrrolo[2,3-d]pyrimidin-2-amine]: 5.5 nM; for `CC(C)CNc1ncc2c(-c3cc(F)c4nccn4c3)c[nH]c2n1` [Compound 196, 5-(8-Fluoroimidazo[1,2-a]pyridin-6-yl)-N-isobutyl-7H-pyrrolo[2,3-d]pyrimidin-2-amine]: 60.5 nM.

`CC(C)(C)CNc1ncc2c(-c3cc(F)c4nccn4c3)c[nH]c2n1` [Compound 197, 5-(8-Fluoroimidazo[1,2-a]pyridin-6-yl)-N-neopentyl-7H-pyrrolo[2,3-d]pyrimidin-2-amine]: the EC50 was found to be 75.4 nM.

Turning to `Fc1cc(-c2c[nH]c3nc(NCCC(F)(F)F)ncc23)cn2ccnc12` [Compound 204, 5-(8-Fluoroimidazo[1,2-a]pyridin-6-yl)-N-(3,3,3-trifluoropropyl)-7H-pyrrolo [2,3-d]pyrimidin-2-amine], the EC50 amounted to 6.6 nM. As for `Fc1cc(-c2c[nH]c3nc(NCC4CC4)ncc23)cn2ccnc12` [Compound 207, N-(Cyclopropylmethyl)-5-(8-fluoroimidazo[1,2-a]pyridin-6-yl)-7H-pyrrolo [2,3-d]pyrimidin-2-amine], the EC50 was determined as 27.4 nM.

As to `CO[C@H]1CC[C@@H](Nc2ncc3c(-c4cc(F)c5nccn5c4)c[nH]c3n2)CC1` [Compound 216, 5-(8-Fluoroimidazo[1,2-a]pyridin-6-yl)-N-(cis-4-methoxycyclohexyl)-7H-pyrrolo[2,3-d]pyrimidin-2-amine], the EC50 stood at 14.9 nM. The value for `CN1CCC(Nc2ncc3c(-c4cc(F)c5nccn5c4)c[nH]c3n2)CC1` [Compound 219, 5-(8-Fluoroimidazo[1,2-a]pyridin-6-yl)-N-(1-methylpiperidin-4-yl)-7H-pyrrolo[2,3-d]pyrimidin-2-amine] was 5.5 nM; that for `Fc1cc(-c2c[nH]c3nc(NC4CCOCC4)ncc23)cn2ccnc12` [Compound 221, 5-(8-Fluoroimidazo[1,2-a]pyridin-6-yl)-N-(tetrahydro-2H-pyran-4-yl)-7H-pyrrolo[2,3-d]pyrimidin-2-amine] was 23 nM. The same measure for `Cc1cn2cc(-c3c[nH]c4nc(C5CC5)ncc34)cc(F)c2n1` [Compound 233, 2-Cyclopropyl-5-(8-fluoro-2-methylimidazo[1,2-a]pyridin-6-yl)-7H-pyrrolo [2,3-d]pyrimidine]: 268 nM; for `Cc1cn2cc(-c3c[nH]c4nc(NC5CCC(F)(F)CC5)ncc34)cc(F)c2n1` [Compound 258, N-(4,4-Difluorocyclohexyl)-5-(8-fluoro-2-methylimidazo[1,2-a]pyridin-6-yl)-7H-pyrrolo[2,3-d]pyrimidin-2-amine]: 45.3 nM; for `CCOc1ncc2c(-c3cc(F)c4ncc(C)n4c3)c[nH]c2n1` [Compound 293, 2-Ethoxy-5-(8-fluoro-3-methylimidazo[1,2-a]pyridin-6-yl)-7H-pyrrolo[2,3-d]pyrimidine]: 93.6 nM.

The values above are taken from patent US20250129104A1, “7H-PYRROLO[2,3-D]PYRIMIDINES AND PREPARATION AND USES THEREOF” (BioSplice Therapeutics, Inc., priority 2021, published 2025).
